Literature values as cited in patent publication US5462964A, “Dipeptide boronic acid inhibitors of trypsin-like enzymes” (The Du Pont Merck Pharmaceutical Company, priority 1993, dated 1995).
pKi: −log10 of the molar value.

Legend:
blood coagulation = details: both in vitro and in vivo; EP 293 881
thrombin [1] = biological target: T1, thrombin (Homo sapiens, UniProt P00734); details: reversible inhibitor of thrombin; literature / EP 293 881
chymotrypsin = chymotrypsin (Bos taurus, UniProt P00766); details: Matteson et al. J. Am. Chem. Soc. 103, 5241 (1981)
thrombin [2] = biological target: T1, thrombin; details: Kettner and Shaw Thromb. Res. 14, 969 (1979)

In the case of `CC(=O)N[C@H](Cc1ccccc1)C(=O)N1CCC[C@H]1C(=O)N[C@@H](CCCN=C(N)N)B(O)O` [Ac-D-Phe-Pro-boroArgOH], the “inhibition of blood coagulation” value (blood coagulation) is listed as “highly effective”.
In the case of `CC(=O)N[C@H](Cc1ccccc1)C(=O)N1CCC[C@H]1C(=O)N[C@H](C=O)CCCNC(=N)N` [Ac-D-Phe-Pro-Arg-H], the pKi (thrombin [1]) is listed as 7.12.
For `CC(=O)N[C@@H](Cc1ccccc1)B(O)O` [Ac-boroPhe-OH, (R)-1-acetamido-2-phenylethane boronic acid], the pKi (chymotrypsin) is given as 5.40.
In the case of `CC(=O)NC(Cc1ccccc1)C(=O)N1CCCC1C(=O)NC(CCCNC(=N)N)C(=O)CCl` [Ac-D-Phe-Pro-ArgCH2 Cl], the “inhibitor of human thrombin” value (thrombin [2]) is given as “potent and selective irreversible inhibitor”.
